Source: article PMC5118696, “Identification of inhibitors that dually target the new permeability pathway and dihydroorotate dehydrogenase in the blood stage of Plasmodium falciparum” (Scientific Reports, 2016)

Tested on: Hyp1-NLuc Plasmodium falciparum-infected erythrocytes (new permeability pathway, NPP)
Test: microbe, parasite or virus in culture
Settings: Erythrocyte, 0.33 h, read-out: % of control remaining

| SMILES | activity at 2 µM [%] |
| --- | --- |
| COc1cc(-c2nc(-c3ccc(Sc4ccccc4)cc3)c(-c3ccccc3)[nH]2)cc(OC)c1O [MMV007273] | 105 |
| COc1ccc(C=C2SC(Nc3ccc(F)cc3)=NC2=O)c(OC)c1 [MMV084434] | 27.1 |
| O=C(Nc1ccc(C23CC4CC(CC(c5ccccc5)(C4)C2)C3)cc1)c1cccs1 [MMV007574] | 111 |
| Cc1ccccc1OCCSc1nc2ccc(NC(=O)c3cccs3)cc2s1 [MMV007396] | 111 |
| COc1ccc(Nc2nc(NN=Cc3ccc(O)cc3)nc(Nc3ccc([N+](=O)[O-])cc3)n2)cc1 [MMV666689] | 93.1 |
| O=C(Nc1ccc(N2CCCCC2)c(Cl)c1)c1ccc(Br)o1 [MMV019700] | 118 |
| O=C(Nc1ccc(Cl)c(Cl)c1)Nc1ccc(Cl)c(Cl)c1 [MMV665852] | 125 |
| Cn1c(=O)n(C)c2cc(CNCCNc3ccnc4cc(Cl)ccc34)ccc21 [MMV665875] | 88.8 |
| Cc1ccc(CN2CCC(C(=O)Nc3ccc(-c4cc5ccccc5[nH]4)cc3)CC2)o1 [MMV666071] | 101 |
| CC(C)(C)C(=O)Nc1ccc(C(=O)Nc2cccc(-c3nc4ccccc4[nH]3)c2)cc1 [MMV665879] | 114 |
| CN1CCN(c2ccc(Nc3c4ccccc4nc4ccccc34)cc2)CC1 [MMV006172] | 96.4 |
| CC(C)OCc1cc(CN2CCN(c3cccc(Cl)c3)CC2)c(O)c2ncccc12 [MMV000788] | 107 |
| O=[N+]([O-])c1ccc(C=NNc2nc3ccccc3[nH]2)cc1 [MMV666607] | 102 |
| FC(F)(F)c1cccc(CNC2CCN(CCc3ccccc3)CC2)c1 [MMV665979] | 112 |
| CCCc1c(CC)c(=N)c2ccccc2n1C [MMV008416] | 100 |
| CN(C)c1ccc(N=Cc2ccc(N3CCOCC3)cc2)cc1 [MMV073843] | 104 |
| COc1ccc(-c2nc3cc(Cc4ccc5[nH]c(-c6ccc(OC)cc6)nc5c4)ccc3[nH]2)cc1 [MMV007384] | 45.6 |
| Cc1ccc(F)cc1NC(=O)c1cc(Cl)ccc1Nc1ccccc1 [MMV007275] | 116 |

| SMILES | activity at 2 µM [%] |
| --- | --- |
| COc1ccc2nc(C)cc(Nc3ccccc3O)c2c1 [MMV274073] | 110 |
| CC(=O)Nc1nnc(SCc2c(C)cc(C(C)(C)C)cc2C)s1 [MMV020700] | 115 |
| COc1ccc(-n2ccnc2SCC(=O)Nc2cc(C)ccc2C)c(OC)c1 [MMV019258] | 115 |
| CN(C)c1ccc(-c2nc3cc(N)ccc3[nH]2)cc1 [MMV666102] | 90 |
| O=C(CCc1ccccc1)c1ccccc1OCC(O)CN1CCCCC1 (stereo not shown) [MMV009015] | 106 |
| CC(C)(C)c1ccc(C(=O)Nc2nc3ccccc3s2)cc1 [MMV142383] | 121 |
| CCOC(=O)c1cnc2ccc(Cl)cc2c1NCCCN(C)C [MMV006882] | 110 |
| CCN1CCN(c2c(C(=O)c3ccccc3)cnc3cc(OC)c(OC)cc23)CC1 [MMV008474] | 102 |
| CCOc1cc2c(cc1OCC)C(c1cc(Cl)ccc1O)NCC2 (stereo not shown) [MMV000478] | 95.3 |
| COc1ccc(C2N(C)c3ccccc3N2C)cc1 [MMV666075] | 123 |
| C=CCc1c(C)nc2ccccc2c1O [MMV006913] | 115 |
| c1ccc2c(NCCCCCCNc3c4c(nc5ccccc35)CCCC4)c3c(nc2c1)CCCC3 [MMV019555] | 109 |
| Cc1cc(NC(=O)C2c3ccccc3C(=O)N(CC(C)C)C2c2cccs2)no1 (stereo not shown) [MMV006429] | 98.1 |
| COc1cc2cc(C(=O)Nc3ccccc3)c(N)nc2cc1OC [MMV006767] | 119 |
| Cc1ccc(NC(=O)Nc2cccc(Cl)c2)cc1F [MMV000911] | 114 |
| CC(C)(C)CC(C)(C)NCC(O)COc1ccc2c(c1)CCC2 (stereo not shown) [MMV665817] | 120 |
| O=C(Nc1ccc(Br)cc1)Nc1cccc(Cl)c1 [MMV001318] | 107 |

Tested on: Hyp1-NLuc Plasmodium falciparum-infected erythrocytes (new permeability pathway, NPP)
Test: microbe, parasite or virus in culture
Settings: Erythrocyte, 0.33 h, read-out: Mean RLU at 28 min (As % of DMSO control)

| SMILES | activity at 2 µM [%] |
| --- | --- |
| COc1cc(-c2nc(-c3ccc(Sc4ccccc4)cc3)c(-c3ccccc3)[nH]2)cc(OC)c1O [MMV007273] | 97.2 |
| COc1ccc(C=C2SC(Nc3ccc(F)cc3)=NC2=O)c(OC)c1 [MMV084434] | 36.5 |
| O=C(Nc1ccc(C23CC4CC(CC(c5ccccc5)(C4)C2)C3)cc1)c1cccs1 [MMV007574] | 106 |
| Cc1ccccc1OCCSc1nc2ccc(NC(=O)c3cccs3)cc2s1 [MMV007396] | 104 |
| COc1ccc(Nc2nc(NN=Cc3ccc(O)cc3)nc(Nc3ccc([N+](=O)[O-])cc3)n2)cc1 [MMV666689] | 95.2 |
| O=C(Nc1ccc(N2CCCCC2)c(Cl)c1)c1ccc(Br)o1 [MMV019700] | 117 |
| O=C(Nc1ccc(Cl)c(Cl)c1)Nc1ccc(Cl)c(Cl)c1 [MMV665852] | 117 |
| Cn1c(=O)n(C)c2cc(CNCCNc3ccnc4cc(Cl)ccc34)ccc21 [MMV665875] | 95.9 |
| Cc1ccc(CN2CCC(C(=O)Nc3ccc(-c4cc5ccccc5[nH]4)cc3)CC2)o1 [MMV666071] | 94.8 |
| CC(C)(C)C(=O)Nc1ccc(C(=O)Nc2cccc(-c3nc4ccccc4[nH]3)c2)cc1 [MMV665879] | 103 |
| CN1CCN(c2ccc(Nc3c4ccccc4nc4ccccc34)cc2)CC1 [MMV006172] | 97.7 |
| CC(C)OCc1cc(CN2CCN(c3cccc(Cl)c3)CC2)c(O)c2ncccc12 [MMV000788] | 109 |
| O=[N+]([O-])c1ccc(C=NNc2nc3ccccc3[nH]2)cc1 [MMV666607] | 103 |
| FC(F)(F)c1cccc(CNC2CCN(CCc3ccccc3)CC2)c1 [MMV665979] | 104 |
| CCCc1c(CC)c(=N)c2ccccc2n1C [MMV008416] | 98.9 |
| CN(C)c1ccc(N=Cc2ccc(N3CCOCC3)cc2)cc1 [MMV073843] | 104 |
| COc1ccc(-c2nc3cc(Cc4ccc5[nH]c(-c6ccc(OC)cc6)nc5c4)ccc3[nH]2)cc1 [MMV007384] | 82.1 |
| Cc1ccc(F)cc1NC(=O)c1cc(Cl)ccc1Nc1ccccc1 [MMV007275] | 106 |

| SMILES | activity at 2 µM [%] |
| --- | --- |
| COc1ccc2nc(C)cc(Nc3ccccc3O)c2c1 [MMV274073] | 110 |
| CC(=O)Nc1nnc(SCc2c(C)cc(C(C)(C)C)cc2C)s1 [MMV020700] | 114 |
| COc1ccc(-n2ccnc2SCC(=O)Nc2cc(C)ccc2C)c(OC)c1 [MMV019258] | 117 |
| CN(C)c1ccc(-c2nc3cc(N)ccc3[nH]2)cc1 [MMV666102] | 98.7 |
| O=C(CCc1ccccc1)c1ccccc1OCC(O)CN1CCCCC1 (stereo not shown) [MMV009015] | 107 |
| CC(C)(C)c1ccc(C(=O)Nc2nc3ccccc3s2)cc1 [MMV142383] | 110 |
| CCOC(=O)c1cnc2ccc(Cl)cc2c1NCCCN(C)C [MMV006882] | 106 |
| CCN1CCN(c2c(C(=O)c3ccccc3)cnc3cc(OC)c(OC)cc23)CC1 [MMV008474] | 97.3 |
| CCOc1cc2c(cc1OCC)C(c1cc(Cl)ccc1O)NCC2 (stereo not shown) [MMV000478] | 104 |
| COc1ccc(C2N(C)c3ccccc3N2C)cc1 [MMV666075] | 109 |
| C=CCc1c(C)nc2ccccc2c1O [MMV006913] | 116 |
| c1ccc2c(NCCCCCCNc3c4c(nc5ccccc35)CCCC4)c3c(nc2c1)CCCC3 [MMV019555] | 101 |
| Cc1cc(NC(=O)C2c3ccccc3C(=O)N(CC(C)C)C2c2cccs2)no1 (stereo not shown) [MMV006429] | 99.6 |
| COc1cc2cc(C(=O)Nc3ccccc3)c(N)nc2cc1OC [MMV006767] | 119 |
| Cc1ccc(NC(=O)Nc2cccc(Cl)c2)cc1F [MMV000911] | 115 |
| CC(C)(C)CC(C)(C)NCC(O)COc1ccc2c(c1)CCC2 (stereo not shown) [MMV665817] | 106 |
| O=C(Nc1ccc(Br)cc1)Nc1cccc(Cl)c1 [MMV001318] | 105 |
